# Source: patent EP0500802B1, “LIPOSOMAL COMPOSITIONS” (priority 1989, dated 1991)
# Assay: Ocular biodistribution of 14C-labelled cromolyn free drug after topical ocular instillation (liquid scintillation counting of tissues)
# Format: in vivo, New Zealand white rabbits
# Settings: for TISSUE CONCENTRATION WEIGHTED MEAN: Examples 1-3
# Protocol: A. Preparation of test article. The sodium cromoglycate free drug test article used in the ocular biodistribution studies (Examples 1, 2 and 3) was prepared according to the following formula: […]
# B. The [propane-2-¹⁴C]cromolyn sodium used in the biodistribution studies was prepared as follows: 1,3-dichloro[2-¹⁴C]propan-2-ol was reacted with 2,6-dihydroxyacetophenone to give 1,3-bis (2-acetyl-3-hydroxy phenoxy)-2-hydroxy[2-¹⁴C]propane. This was treated with base and diethyl oxalate followed by acid catalysed cyclisation to give diethyl [propane-2-¹⁴C]cromolyn. Hydrolysis with sodium hydroxide gave the final product which was purified by crystallisation from water acetone. C. Specification and Handling of Experimental Animals and Tissues. • 1. Description of Experimental Animals: Female, New Zealand white rabbits (Hare Marland) weighing 2-3 kg were used in these studies. Upon receipt each animal was assigned an identification number and examined for gross signs of general health. The animals were individually housed in standard rabbit cages and given access to food and water ad libitum. Animals were received approximately one week before initiation of the study. Prior to the study the animals were randomly assigned to treatment groups using either a random number table or generator. Immediately before treatment the ocular tissues were examined for signs of irritation. If irritation was observed, either another animal was substituted or the condition noted. Food was removed at the time of treatment Water was available ad libitum throughout. • 2. Topical Ocular Instillation of Test Article: Animals were treated unilaterally by topical ocular instillation using a positive displacement pipet. The eyelids were gently retracted and the dose applied onto the cornea taking care to avoid touching the tissue with the pipet tip. The animal was positioned such that the dose flowed into the lower cul-de-sac. After treatment the animals were returned to their cages. • 3. Collection of Plasma Sample: Immediately prior to euthanasia, animals were placed in a standard rabbit restrainer. A small amount of xylene was applied to an eartip to enhance blood flow. The lateral ear vein was lanced and approximately 500 ul of blood collected in a Microtainer Brand Tube with EDTA (Becton Dickinson). The tubes were mixed by inversion and centrifuged in a microfuge for 10 minutes. A 200 ul aliquot of plasma was transferred to a scintillation vial for further processing of the sample. • 4. Euthanasia: Animals were euthanized by intravenous injection of a lethal dose of T61 Euthanasia Fluid (Hoechst-Roussel) into a lateral ear vein. Death was verified by absence of respiration, heart beat, and ocular reflexes. • 5. Dissection of Ocular Tissues. • a. Removal of Aqueous Humor: Aqueous humor was removed using a 1 ml disposable, plastic syringe equipped with a 5/8"-27g needle. The needle was inserted into the anterior chamber at the limbus. The fluid was gently withdrawn and transferred to a preweighed scintillation vial. • b. Removal of Globe, Conjunctiva, and Nictitating Membrane: The eyelids were retracted using 6" curbed hemostats. Incisions were made at the corners of the eye to facilitate dissection of the conjunctiva. The palpebral conjunctiva and nictitating membrane were dissected free of the eyelids, muscle, and connective tissue using Wilmer-Converse conjunctiva scissors. The conjunctiva and nictitating membrane were grasped with straight Kirby tissue forceps to form a sack around the globe. The sack and its contents were removed from the socket as a unit using heavy curved nucleation scissors. Excess blood was removed from the outside of the sac by gentle blotting with gauze pads. • c. Dissection of Conjunctiva, and Nictitating Membrane: The nictitating membrane was grasped with straight Kirby tissue forceps. The conjunctiva was cut with heavy curved eye scissors along one edge of the nictitating membrane. […]
structure (smiles),measurement,setting,value
"O=C(O)c1cc(=O)c2c(OCC(O)COc3cccc4oc(C(=O)O)cc(=O)c34)cccc2o1 [CROMOLYN FREE DRUG, 5,5' -[(2-Hydroxy-1,3-propanediyl)bis-(oxy)]bis[4-oxo-4H-1-benzopyran-2-carboxylic acid]]",TISSUE CONCENTRATION MEAN,"AQUEOUS HUMOR, Rx eye, 2 HR, EXAMPLE 1",70 ng Cromolyn/g or ml Tissue
same,TISSUE CONCENTRATION MEAN,"AQUEOUS HUMOR, Rx eye, 2 HR, EXAMPLE 2",36 ng Cromolyn/g or ml Tissue
same,TISSUE CONCENTRATION MEAN,"AQUEOUS HUMOR, Rx eye, 2 HR, EXAMPLE 3",129 ng Cromolyn/g or ml Tissue
same,TISSUE CONCENTRATION WEIGHTED MEAN,"AQUEOUS HUMOR, Rx eye, 2 HR",39 ng Cromolyn/g or ml Tissue
same,TISSUE CONCENTRATION MEAN,"AQUEOUS HUMOR, Rx eye, 4 HR, EXAMPLE 1",37 ng Cromolyn/g or ml Tissue
same,TISSUE CONCENTRATION MEAN,"AQUEOUS HUMOR, Rx eye, 4 HR, EXAMPLE 2",29 ng Cromolyn/g or ml Tissue
same,TISSUE CONCENTRATION MEAN,"AQUEOUS HUMOR, Rx eye, 4 HR, EXAMPLE 3",68 ng Cromolyn/g or ml Tissue
same,TISSUE CONCENTRATION WEIGHTED MEAN,"AQUEOUS HUMOR, Rx eye, 4 HR",35 ng Cromolyn/g or ml Tissue
same,TISSUE CONCENTRATION MEAN,"AQUEOUS HUMOR, Rx eye, 8 HR, EXAMPLE 1",16 ng Cromolyn/g or ml Tissue
same,TISSUE CONCENTRATION MEAN,"AQUEOUS HUMOR, Rx eye, 8 HR, EXAMPLE 2",13 ng Cromolyn/g or ml Tissue
same,TISSUE CONCENTRATION MEAN,"AQUEOUS HUMOR, Rx eye, 8 HR, EXAMPLE 3",10 ng Cromolyn/g or ml Tissue
same,TISSUE CONCENTRATION WEIGHTED MEAN,"AQUEOUS HUMOR, Rx eye, 8 HR",13 ng Cromolyn/g or ml Tissue
same,TISSUE CONCENTRATION MEAN,"CONJUNCTIVA, Rx eye, 2 HR, EXAMPLE 1",3501 ng Cromolyn/g or ml Tissue
same,TISSUE CONCENTRATION MEAN,"CONJUNCTIVA, Rx eye, 2 HR, EXAMPLE 2",3316 ng Cromolyn/g or ml Tissue
same,TISSUE CONCENTRATION MEAN,"CONJUNCTIVA, Rx eye, 2 HR, EXAMPLE 3",2332 ng Cromolyn/g or ml Tissue
same,TISSUE CONCENTRATION WEIGHTED MEAN,"CONJUNCTIVA, Rx eye, 2 HR",2887 ng Cromolyn/g or ml Tissue
same,TISSUE CONCENTRATION MEAN,"CONJUNCTIVA, Rx eye, 4 HR, EXAMPLE 1",742 ng Cromolyn/g or ml Tissue
same,TISSUE CONCENTRATION MEAN,"CONJUNCTIVA, Rx eye, 4 HR, EXAMPLE 2",683 ng Cromolyn/g or ml Tissue
same,TISSUE CONCENTRATION MEAN,"CONJUNCTIVA, Rx eye, 4 HR, EXAMPLE 3",772 ng Cromolyn/g or ml Tissue
same,TISSUE CONCENTRATION WEIGHTED MEAN,"CONJUNCTIVA, Rx eye, 4 HR",716 ng Cromolyn/g or ml Tissue
same,TISSUE CONCENTRATION MEAN,"CONJUNCTIVA, Rx eye, 8 HR, EXAMPLE 1",687 ng Cromolyn/g or ml Tissue
same,TISSUE CONCENTRATION MEAN,"CONJUNCTIVA, Rx eye, 8 HR, EXAMPLE 2",578 ng Cromolyn/g or ml Tissue
same,TISSUE CONCENTRATION MEAN,"CONJUNCTIVA, Rx eye, 8 HR, EXAMPLE 3",614 ng Cromolyn/g or ml Tissue
same,TISSUE CONCENTRATION WEIGHTED MEAN,"CONJUNCTIVA, Rx eye, 8 HR",607 ng Cromolyn/g or ml Tissue
same,TISSUE CONCENTRATION MEAN,"CORNES, Rx eye, 2 HR, EXAMPLE 1",1005 ng Cromolyn/g or ml Tissue
same,TISSUE CONCENTRATION MEAN,"CORNES, Rx eye, 2 HR, EXAMPLE 2",478 ng Cromolyn/g or ml Tissue
same,TISSUE CONCENTRATION MEAN,"CORNES, Rx eye, 2 HR, EXAMPLE 3",683 ng Cromolyn/g or ml Tissue
same,TISSUE CONCENTRATION WEIGHTED MEAN,"CORNES, Rx eye, 2 HR",519 ng Cromolyn/g or ml Tissue
same,TISSUE CONCENTRATION MEAN,"CORNES, Rx eye, 4 HR, EXAMPLE 1",487 ng Cromolyn/g or ml Tissue
same,TISSUE CONCENTRATION MEAN,"CORNES, Rx eye, 4 HR, EXAMPLE 2",298 ng Cromolyn/g or ml Tissue
same,TISSUE CONCENTRATION MEAN,"CORNES, Rx eye, 4 HR, EXAMPLE 3",381 ng Cromolyn/g or ml Tissue
same,TISSUE CONCENTRATION WEIGHTED MEAN,"CORNES, Rx eye, 4 HR",337 ng Cromolyn/g or ml Tissue
same,TISSUE CONCENTRATION MEAN,"CORNES, Rx eye, 8 HR, EXAMPLE 1",160 ng Cromolyn/g or ml Tissue
same,TISSUE CONCENTRATION MEAN,"CORNES, Rx eye, 8 HR, EXAMPLE 2",165 ng Cromolyn/g or ml Tissue
same,TISSUE CONCENTRATION MEAN,"CORNES, Rx eye, 8 HR, EXAMPLE 3",127 ng Cromolyn/g or ml Tissue
same,TISSUE CONCENTRATION WEIGHTED MEAN,"CORNES, Rx eye, 8 HR",162 ng Cromolyn/g or ml Tissue
same,TISSUE CONCENTRATION MEAN,"IRIS-CILIARY BODY, Rx eye, 2 HR, EXAMPLE 3",56 ng Cromolyn/g or ml Tissue
same,TISSUE CONCENTRATION MEAN,"IRIS-CILIARY BODY, Rx eye, 4 HR, EXAMPLE 3",29 ng Cromolyn/g or ml Tissue
same,TISSUE CONCENTRATION MEAN,"NICTITATING MEMBRANE, Rx eye, 2 HR, EXAMPLE 1",2136 ng Cromolyn/g or ml Tissue
same,TISSUE CONCENTRATION MEAN,"NICTITATING MEMBRANE, Rx eye, 2 HR, EXAMPLE 2",2438 ng Cromolyn/g or ml Tissue
same,TISSUE CONCENTRATION MEAN,"NICTITATING MEMBRANE, Rx eye, 2 HR, EXAMPLE 3",2618 ng Cromolyn/g or ml Tissue
same,TISSUE CONCENTRATION WEIGHTED MEAN,"NICTITATING MEMBRANE, Rx eye, 2 HR",2319 ng Cromolyn/g or ml Tissue
same,TISSUE CONCENTRATION MEAN,"NICTITATING MEMBRANE, Rx eye, 4 HR, EXAMPLE 1",480 ng Cromolyn/g or ml Tissue
same,TISSUE CONCENTRATION MEAN,"NICTITATING MEMBRANE, Rx eye, 4 HR, EXAMPLE 2",484 ng Cromolyn/g or ml Tissue
same,TISSUE CONCENTRATION MEAN,"NICTITATING MEMBRANE, Rx eye, 4 HR, EXAMPLE 3",576 ng Cromolyn/g or ml Tissue
same,TISSUE CONCENTRATION WEIGHTED MEAN,"NICTITATING MEMBRANE, Rx eye, 4 HR",494 ng Cromolyn/g or ml Tissue
same,TISSUE CONCENTRATION MEAN,"NICTITATING MEMBRANE, Rx eye, 8 HR, EXAMPLE 1",348 ng Cromolyn/g or ml Tissue
same,TISSUE CONCENTRATION MEAN,"NICTITATING MEMBRANE, Rx eye, 8 HR, EXAMPLE 2",350 ng Cromolyn/g or ml Tissue
same,TISSUE CONCENTRATION MEAN,"NICTITATING MEMBRANE, Rx eye, 8 HR, EXAMPLE 3",462 ng Cromolyn/g or ml Tissue
same,TISSUE CONCENTRATION WEIGHTED MEAN,"NICTITATING MEMBRANE, Rx eye, 8 HR",383 ng Cromolyn/g or ml Tissue
same,TISSUE CONCENTRATION MEAN,"PLASMA, 2 HR, EXAMPLE 3",1 ng Cromolyn/g or ml Tissue
same,Cromolyn levels in the aqueous humor of the untreated eye,"any time point (2, 4, 8 hours), Example 1 results text",no detectable
